The values below are quoted from earlier work in US20040131544A1, “In vivo imaging” (priority 1999, published 2004).

For this data set the following is noted: background statement; Doze, et al., Nuclear Medicine and Biology 27:315-319 (2000).

Regarding `CC(C)NCC(O)COc1cccc2[nH]c3ccccc3c12` (stereo not shown) [carazolol], the “adverse properties (mutagenicity / toxicity)” value is on record as “not toxic”.
